Data as given in ChEMBL document CHEMBL1156350, “New multiflorane-type triterpenoid acids from Sandoricum indicum” (J Nat Prod, 2001).
Values after ≈ are worked out from the molar mass of the structure shown.

Tests used:
Type in all cases: functional, cell-based
Lymphocyte = assay: Immunosuppressant activity in mouse lymphocytes assessed as inhibition of lymphocyte proliferation
P388/S = assay: Cytotoxicity against drug-sensitive mouse P388/S cells
P388 [1] = assay: Cytotoxicity against vincristine-resistant mouse P388 cells
P388 [2] = assay: Cytotoxicity against vincristine-resistant mouse P388 cells in presence of vincristine
P388 [3] = assay: Cytotoxicity against adriamycin-resistant mouse P388 cells
P388 [4] = assay: Cytotoxicity against adriamycin-resistant mouse P388 cells in presence of adriamycin
HL-60 = assay: Cytotoxicity against human HL60 cells

SMILES	IC50 (Lymphocyte)	IC50 (P388/S)	IC50 (P388 [1])	IC50 (P388 [2])	IC50 (P388 [3])	IC50 (P388 [4])	IC50 (HL-60)
CC1(C)[C@@H](O)CC[C@]2(C)[C@H]3CC=C4[C@@H]5C[C@](C)(C(=O)O)CC[C@]5(C)CC[C@@]4(C)[C@]3(C)CC[C@@H]12	50 µg/mL (≈ 109 µM)	> 25 µg/mL	> 25 µg/mL	> 25 µg/mL	> 25 µg/mL	> 25 µg/mL	
CC1(C)C(=O)CC[C@]2(C)[C@H]3CC=C4[C@@H]5C[C@](C)(C(=O)O)CC[C@]5(C)CC[C@@]4(C)[C@]3(C)CC[C@@H]12	25 µg/mL (≈ 55 µM)	> 25 µg/mL	12 µg/mL (≈ 26.4 µM)	12 µg/mL	> 25 µg/mL	> 25 µg/mL	15 µg/mL (≈ 33 µM)
C=C(C)[C@@H]1CC[C@]2(C)[C@H](CC=C3[C@@H]4C[C@](C)(C(=O)O)CC[C@]4(C)CC[C@]32C)[C@@]1(C)CCC(=O)O	> 100 µg/mL	> 25 µg/mL	> 25 µg/mL	> 25 µg/mL	> 25 µg/mL	> 25 µg/mL	
CC1(C)[C@H](O)CC[C@]2(C)[C@H]3CC=C4[C@@H]5C[C@](C)(C(=O)O)CC[C@]5(C)CC[C@@]4(C)[C@]3(C)CC[C@@H]12 [KATONIC ACID]	25 µg/mL (≈ 54.7 µM)	> 25 µg/mL	25 µg/mL (≈ 54.7 µM)	16 µg/mL	> 25 µg/mL	> 25 µg/mL	
C=C(C)[C@@H]1CC[C@]2(C)[C@H](CC=C3[C@@H]4C[C@@](C)(C(=O)O)CC[C@]4(C)CC[C@]32C)[C@@]1(C)CCC(=O)O [KOETJAPIC ACID]	> 100 µg/mL	> 25 µg/mL	> 25 µg/mL	> 25 µg/mL	> 25 µg/mL	> 25 µg/mL	
CC1(C)C(=O)CC[C@]2(C)C3=C(CC[C@@H]12)[C@@]1(C)CC[C@@]2(C)CC[C@@](C)(C(=O)O)C[C@@]2(O)[C@]1(C)[C@H](O)C3 [SANDORINIC ACID A]	25 µg/mL (≈ 51.4 µM)	16 µg/mL (≈ 32.9 µM)	10 µg/mL (≈ 20.5 µM)	9 µg/mL	9 µg/mL (≈ 18.5 µM)	9 µg/mL	15 µg/mL (≈ 30.8 µM)
CC1(C)C(=O)CC[C@]2(C)[C@H]3C[C@@H](O)[C@@]4(C)[C@]5(O)C[C@](C)(C(=O)O)CC[C@]5(C)CC[C@]4(C)C3=CC[C@@H]12 [SANDORINIC ACID B]	50 µg/mL (≈ 103 µM)	> 25 µg/mL	16 µg/mL (≈ 32.9 µM)	16 µg/mL	18 µg/mL (≈ 37 µM)	> 25 µg/mL	
CC1(C)C(=O)CC[C@]2(C)C3=C(CC[C@@H]12)[C@@]1(C)CC[C@@]2(C)CC[C@@](C)(C(=O)O)C[C@H]2[C@]1(C)[C@H](O)C3 [SANDORINIC ACID C]		> 25 µg/mL	> 25 µg/mL	> 25 µg/mL	> 25 µg/mL	> 25 µg/mL	
